Source: US20080039410A1, “Inositol 1,4,5-Trisphosphate Receptor Mutants and Uses Thereof” (priority 2004, published 2008)
“And” between values parts separate entries of the source, which are not always exact repeats. Equal entries are not always repeated. “Also recorded” adds a separate entry of the source.

Assays:
Type in all cases: cell-based, rat
S2+ InsP3R-1 = test: Potentiation of CCh-induced Ca2+ release after PKA activation (forskolin), S2+ InsP3R-1 constructs in DT-40 3ko cells; conditions: for effect of forskolin treatment on CCh-induced [Ca^2+]i peak: 20 μM forskolin, threshold CCh; for Ca^2+ release after PKA activation: S2 + InsP3R-1 constructs, Table 2
Description: (§1) DT-40 cells lacking all three InsP3 receptor subtypes DT-40 3ko were transfected using electroporation, 350 V and 950 μF. 2×10^7 cells were co-transfected with 25 μg of the InsP3R cDNA, 25 μg of the muscarinic type 3 (M3) receptor, and 4 μg of the red fluorescent protein plasmid pHcRed1-N1. Cells were incubated with DNA in 500 μL of Optimem media on ice for 10 minutes. The cell/DNA mixture was electroporated, incubated on ice for 30 minutes, brought up to 5 ml with Optimem and placed in a 5% C02 incubator at 39° C. for 5 hours. The cells were then centrifuged and resuspended in 12 ml of complete RPMI media. Transfection efficiency was typically ˜20%. Experiments were performed within 32 hours of transfection.
(§2) Transfected DT-40 3ko cells were washed once in a HEPES-buffered physiological saline solution (HEPES-PSS) containing (in mM) 5.5 glucose, 137 NaCl, 0.56 MgCl2, 4.7 KCl, 1 Na2HPO4, 10 HEPES (pH 7.4), 1.2 CaCl2 and 1% w/v Bovine Serum Albumin. Cells were then resuspended in BSA HEPES-PSS with 1 μM Fura-2 (AM), placed on a 15 mm glass coverslip in a low volume perfusion chamber (Warner Instruments) and allowed to adhere for 30 minutes at room temperature. Cells were perfused continually for 10 minutes with HEPES-PSS before experimentation to allow Fura-2 de-esterification. A field of cells for each experiment was chosen that contained a wide range of transfection efficiency based upon the intensity of red fluorescence emitted when excited at 560 nm. [Ca^2+]i imaging was performed essentially as previously described using an inverted epifluorescence Nikon microscope with a 40× oil immersion objective lens (numerical aperture, 1.3). Cells were excited alternately with light at 340 and 380 nm (±10 mn bandpass filters, Chroma) using a monochrometer (TILL Photonics). Fluorescence images were captured and digitized with a digital camera driven by TILL Photonics software. Images were captured every 2 seconds with an exposure of 35 ms and no binning. 340/380 ratio images were calculated online and stored immediately to hard disk.
(§3) The effects of treatment were determined by normalizing the peak change in fluorescence ratio by stimulation following forskolin or 8-Br cGMP exposure to that of stimulation in control HEPES-PSS. Thus, pooled data represents a normalized fold increase over control for the treated trial. Two tailed heteroscedastic t-tests with P values<0.05 were considered to have statistical significance.
Experiments were performed in DT-40 3ko cells transfected with S2^+ InsP3R-1. Since there are no reports of Gαq coupled receptors expressed in DT-40 cells, initial experiments were performed eliciting [Ca^2+]i changes by stimulating the endogenous B cell receptor with α-IgM antibody. […] Thus, in all further experiments, DT-40 3ko cells were co-transfected with the M3 receptor, and HcRed to facilitate identification of transfected cells (inset FIG. 1). Stimulation of M3 receptors with the muscarinic agonist carbachol (CCh), provided a convenient means of stimulating [Ca^2+]i changes, presumably through Gαq-induced activation of phospholipase C and production of InsP3. […] The potentiation was most marked when threshold elevations in [Ca^2+]i were evoked by the initial exposure to CCh and therefore only cells in which the initial CCh treatment evoked a Δ 340/380 ratio of<0.2 ratio units were included for analysis. […] [Ca^2+]i changes were never evoked by CCh treatment in cells transfected with only M3 cDNA in the absence of InsP3R or likewise InsP3R with no M3 cDNA.
The effects of treatment were determined by normalizing the peak change in fluorescence ratio by stimulation following forskolin or 8-Br-cGMP exposure to that of stimulation in control HEPES-PSS. Thus, pooled data represent a normalized fold increase over control for the treated trial. In all cases where statistical significance is indicated, two-tailed heteroscedastic t tests were performed. […]

S2− InsP3R-1 [1] = test: Phosphorylation of Ser-1755 after forskolin in transfected HEK-293 cells (immunoprecipitation, Western blot); conditions: 20 μM forskolin 10 min, α-phospho-Ser-1755 blot
Description: HEK-293 cells were plated onto 25-cm^2 culture flasks and allowed to grow to near-confluency. Cells were transfected with 5 μg of each S2− InsP3R-1 DNA construct by using the LipofectAMINE reagent (Invitrogen) as per the manufacturer's instructions. The following day, batches of cells were treated in the presence or absence of 20 μM forskolin for 10 min, aspirated from flasks, lysed, and immunoprecipitated with a polyclonal α-InsP3R-1 antibody that recognizes amino acids 2731-2749 of InsP3R-1. Immunoprecipitates were separated on 5% SDS gels transferred to nitrocellulose and then probed with either the α-InsP3R-1 antibody or a polyclonal antibody that recognizes the phosphorylated state of Ser-1755 (39) (α-phospho-Ser-1755), kindly provided by Dr. S. Snyder. Blots that were probed with a-phospho-Ser-1755were stripped and reprobed with the α-InsP3R-1 antisera to confirm the presence and relative quantity of the InsP3R-1.
The enhanced apparent sensitivity of individual phosphomimetic mutants was essentially equal and intermediate between the sensitivity of the S2−WT and S2−EE mutations. […] To address this possibility directly, experiments were performed evaluating the effects of activating endogenous PKA in cells expressing S2−SE or S2−ES to mimic prior phosphorylation of an individual site. […] To test this, experiments were performed to determine the phosphorylation state of the various mutants after raising cAMP levels. These experiments were performed in HEK-293 cells because of the high transfection efficiency and low endogenous levels of InsP3R-1 (47, 99). […] Following incubation of the lysates with α-InsP3R-1 antibody, the immune complexes were captured and separated on SDS gels, and the phosphorylation status of Ser-1755 was determined by Western blotting with an antibody that specifically recognizes this phosphorylated residue in InsP3R-1 (39).

S2− InsP3R-1 [2] = test: Potentiation of CCh-induced Ca2+ release after PKA activation (forskolin), S2− InsP3R-1 constructs in DT-40 3ko cells; conditions: for effect of forskolin treatment on CCh-induced [Ca^2+]i peak: threshold CCh; for Ca^2+ release after PKA activation: S2 − InsP3R-1 constructs, Table 2
Description: as §1, §2, §3
Similar experimental paradigms were employed to assess the effect of PKA-induced phosphorylation on a homogeneous population of S2^− InsP3R-1.
The effects of treatment were determined by normalizing the peak change in fluorescence ratio by stimulation following forskolin or 8-Br-cGMP exposure to that of stimulation in control HEPES-PSS. Thus, pooled data represent a normalized fold increase over control for the treated trial. In all cases where statistical significance is indicated, two-tailed heteroscedastic t tests were performed. P values<0.05 were considered to indicate statistical significance and are denoted by an asterisk in the figures.
The enhanced apparent sensitivity of individual phosphomimetic mutants was essentially equal and intermediate between the sensitivity of the S2−WT and S2−EE mutations. […] To address this possibility directly, experiments were performed evaluating the effects of activating endogenous PKA in cells expressing S2−SE or S2−ES to mimic prior phosphorylation of an individual site. […] To test this, experiments were performed to determine the phosphorylation state of the various mutants after raising cAMP levels. These experiments were performed in HEK-293 cells because of the high transfection efficiency and low endogenous levels of InsP3R-1 (47, 99). […]

Substance | phosphorylation of Ser-1755 after forskolin (S2− InsP3R-1 [1]) | effect of forskolin treatment on CCh-induced [Ca^2+]i peak (S2− InsP3R-1 [2]; 20 μM forskolin) | Ca^2+ release after PKA activation (S2− InsP3R-1 [2]) | also measured
S2+ES: S2+ InsP3R-1, long splice variant with S1589E |  |  |  | effect of forskolin treatment on CCh-induced [Ca^2+]i peak (S2+ InsP3R-1): marked potentiation; also recorded: markedly potentiated; Ca^2+ release after PKA activation (S2+ InsP3R-1): Enhanced
G1690A: InsP3R-1 S2− variant with glycine to alanine substitution at position 1690 (nucleotide binding site mutant) | not susceptible to phosphorylation; also recorded: not phosphorylated | strikingly absent; also recorded: fails to potentiate |  | 
S2−EE: phosphomimetic S1589E/S1755E mutant of the short splice variant | no phosphorylation | no potentiation | No change/NT | 
S2+SE: phosphomimetic S2+ InsP3R-1, long splice variant of S1755E |  |  |  | effect of forskolin treatment on CCh-induced [Ca^2+]i peak (S2+ InsP3R-1): no further potentiation; Ca^2+ release after PKA activation (S2+ InsP3R-1): No change
S2−ES: phosphomimetic short splice variant S1589E | no phosphorylation; also recorded: lack of phosphorylation | no potentiation | No change/NT | 
S2−SE: phosphomimetic short splice variant of S1755E | no phosphorylation | no potentiation | No change/NT | 
S2−WT: wild-type rat type-1 InsP3 receptor, peripheral short S2− splice variant (SEQ ID NO: 17) |  | dramatic potentiation; also recorded: markedly potentiated | Enhanced | phosphorylation of Ser-1755 after forskolin (S2− InsP3R-1 [1]; listed as S2−InsP3R-1): results in phosphorylation; phosphorylation of Ser-1755 after forskolin (S2− InsP3R-1 [1]; listed as wild type S2^−InsP3R-1): robustly phosphorylated; effect on subsequent CCh-induced Ca^2+ release (S2− InsP3R-1 [2]; 100 nM, 500 nM or 1 μM forskolin): failed to enhance; fold potentiation of Ca^2+ release (S2− InsP3R-1 [2]; 5 μM forskolin (threshold concentration)): 1.26±0.21 fold; fold increase in CCh-induced Ca^2+ release in the presence of forskolin (S2− InsP3R-1 [2]; 20 μM forskolin, Fura-2, listed as wild-type S2^− InsP3R-1): ~3 fold and ~4 fold; effect of forskolin treatment on CCh-induced [Ca^2+]i peak (S2− InsP3R-1 [2]; 20 μM forskolin, listed as S2^− InsP3R-1): potentiated Ca^2+ release; effect of forskolin treatment on CCh-induced [Ca^2+]i peak (S2− InsP3R-1 [2]; 20 μM forskolin, listed as wild type S2^− InsP3R-1): enhanced CCh stimulated Ca^2+ release; effect of forskolin treatment on CCh-induced [Ca^2+]i peak (S2− InsP3R-1 [2]; 20 μM forskolin, listed as wild-type S2^− InsP3R-1): marked potentiation
